Activity calls are given as the source filed them.
Legend:
[1] = target: T1, Endoribonuclease toxin MazF (Escherichia coli K-12, UniProt P0AE70); experiment: MazF toxin RNase activators, dose response, biochemical, fluorescence, single-stranded RNA substrate, uHTS hits (AID 588481); assay type: functional
T1 sequence (P0AE70 whole entry): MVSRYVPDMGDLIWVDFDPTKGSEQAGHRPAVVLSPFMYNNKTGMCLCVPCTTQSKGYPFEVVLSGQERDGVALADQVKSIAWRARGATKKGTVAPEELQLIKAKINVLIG

[2] = target: T1, Endoribonuclease toxin MazF; experiment: fluorescent RNA oligo signal without MazF, dose response, counter-screen for MazEF activator project, biochemical, fluorescence, single-stranded RNase substrate (AID 588502); assay type: functional
[3] = inhibitors of intracellular T. cruzi replication, confirmation, NIH3T3 host cells, beta-gal luminescence (AID 2044); assay type: functional, cell-based;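 note: intracellular parasites grown in NIH/3T3 mouse fibroblasts as host cells; luminescent beta-galactosidase reporter signal from transgenic T. cruzi replicating inside host cells; inhibitors lower the luminescence signal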
[4] = cytotoxicity toward NIH3T3 fibroblasts, dose response, counter-screen, cell-based, ATP luminescence, mouse fibroblasts (AID 2010); assay type: functional;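 note: cells exposed to compound for about 90 hours before reading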
[5] = target: T2, Adenosylmethionine-8-amino-7-oxononanoate aminotransferase (Mycobacterium tuberculosis, UniProt P9WQ81); experiment: Mycobacterium tuberculosis BioA enzyme inhibitor Measured in Biochemical System Using Plate Reader - 2163-02_Inhibitor_Dose_CherryPick_Activity.; assay type: functional, Mycobacterium tuberculosis UT205
T2 sequence (P9WQ81 whole entry): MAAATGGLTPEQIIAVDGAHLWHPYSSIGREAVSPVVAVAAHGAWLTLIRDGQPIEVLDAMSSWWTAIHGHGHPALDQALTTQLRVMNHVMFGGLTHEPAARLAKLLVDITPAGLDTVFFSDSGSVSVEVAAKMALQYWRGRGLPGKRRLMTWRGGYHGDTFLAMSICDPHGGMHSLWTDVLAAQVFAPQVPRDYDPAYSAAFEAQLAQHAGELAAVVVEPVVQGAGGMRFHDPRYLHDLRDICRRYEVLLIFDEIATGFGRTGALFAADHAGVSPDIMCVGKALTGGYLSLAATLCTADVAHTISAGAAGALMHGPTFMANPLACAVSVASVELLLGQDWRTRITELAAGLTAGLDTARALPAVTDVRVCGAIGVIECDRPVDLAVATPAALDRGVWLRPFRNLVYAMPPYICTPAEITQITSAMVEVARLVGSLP

Cryptococcus neoformans = experiment: PubChem AID 686997; assay type: functional, organism-based; conditions: Cryptococcus neoformans
[6] = target: T3, Replicative DNA helicase DnaB (Mycobacterium tuberculosis, UniProt P9WMR3); experiment: DnaB intein splicing inhibitors, dose response, biochemical, cell-free fluorescence (AID 449749); assay type: functional
T3 sequence (P9WMR3 whole entry): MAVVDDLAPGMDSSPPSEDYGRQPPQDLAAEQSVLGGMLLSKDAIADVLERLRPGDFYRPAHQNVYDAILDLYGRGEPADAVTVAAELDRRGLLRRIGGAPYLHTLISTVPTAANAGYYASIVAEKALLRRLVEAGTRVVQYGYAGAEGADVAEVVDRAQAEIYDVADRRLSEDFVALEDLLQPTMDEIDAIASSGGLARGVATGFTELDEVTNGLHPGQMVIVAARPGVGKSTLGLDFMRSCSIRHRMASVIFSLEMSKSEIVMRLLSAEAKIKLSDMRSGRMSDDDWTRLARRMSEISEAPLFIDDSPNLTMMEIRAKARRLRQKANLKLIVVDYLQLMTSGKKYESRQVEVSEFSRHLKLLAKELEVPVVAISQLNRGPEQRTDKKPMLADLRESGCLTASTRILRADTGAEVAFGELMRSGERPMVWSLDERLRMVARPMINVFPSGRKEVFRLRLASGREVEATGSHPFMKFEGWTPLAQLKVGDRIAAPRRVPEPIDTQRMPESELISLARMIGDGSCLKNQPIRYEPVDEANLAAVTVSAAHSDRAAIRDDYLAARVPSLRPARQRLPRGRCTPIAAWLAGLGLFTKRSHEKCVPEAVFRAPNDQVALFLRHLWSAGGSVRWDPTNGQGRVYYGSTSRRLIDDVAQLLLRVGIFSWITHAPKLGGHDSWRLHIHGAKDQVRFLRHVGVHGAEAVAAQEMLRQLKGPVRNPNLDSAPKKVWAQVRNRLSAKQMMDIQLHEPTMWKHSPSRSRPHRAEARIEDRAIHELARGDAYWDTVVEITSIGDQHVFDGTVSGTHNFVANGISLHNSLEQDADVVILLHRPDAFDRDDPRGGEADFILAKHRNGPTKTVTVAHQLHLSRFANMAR

Protein RecA = target: T4, Protein RecA (Mycobacterium tuberculosis, UniProt P9WHJ3); experiment: Fluorescence Cell-Free Homogeneous Dose Retest to Identify Inhibitors of RecA-Intein Splicing Activity. [Related pubchem assays (depositor defined):AID2097, AID2223, AID489010, AID492950]; assay type: functional
T4 sequence (P9WHJ3 whole entry): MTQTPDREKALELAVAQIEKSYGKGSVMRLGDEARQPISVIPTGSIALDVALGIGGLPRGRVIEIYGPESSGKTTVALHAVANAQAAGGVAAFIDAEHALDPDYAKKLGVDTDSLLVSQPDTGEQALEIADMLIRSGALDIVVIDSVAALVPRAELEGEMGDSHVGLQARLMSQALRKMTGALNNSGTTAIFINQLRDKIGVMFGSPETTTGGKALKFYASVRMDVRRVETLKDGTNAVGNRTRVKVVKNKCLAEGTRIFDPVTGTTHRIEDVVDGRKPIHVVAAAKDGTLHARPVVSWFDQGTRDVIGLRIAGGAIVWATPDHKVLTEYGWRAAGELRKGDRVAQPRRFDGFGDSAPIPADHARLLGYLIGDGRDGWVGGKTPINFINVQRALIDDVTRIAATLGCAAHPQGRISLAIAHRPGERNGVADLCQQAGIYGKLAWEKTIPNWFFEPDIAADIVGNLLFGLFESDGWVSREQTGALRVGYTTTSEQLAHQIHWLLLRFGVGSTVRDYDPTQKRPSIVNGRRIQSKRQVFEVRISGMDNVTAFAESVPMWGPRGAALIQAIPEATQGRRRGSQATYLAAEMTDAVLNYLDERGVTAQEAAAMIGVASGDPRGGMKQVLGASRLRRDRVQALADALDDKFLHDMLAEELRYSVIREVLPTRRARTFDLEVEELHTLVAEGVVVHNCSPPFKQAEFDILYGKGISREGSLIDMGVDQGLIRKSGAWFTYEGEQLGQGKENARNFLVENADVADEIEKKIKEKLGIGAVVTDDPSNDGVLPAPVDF

Vero = experiment: cells; assay type: functional; conditions: Chlorocebus sabaeus
HEK293 = experiment: inhibitors of LMP1-driven NF-kB reporter, dose response, cell-based, HEK293, luciferase, cherry-pick (AID 588343); assay type: functional; conditions: Homo sapiens
INS1 = experiment: beta cell apoptosis inhibitors, cytokine rescue, dose response, luminescence, retest (AID 449756); assay type: functional, cell-based; conditions: Rattus norvegicus;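 note: cell death triggered by IL-1 beta plus TNF-alpha plus IFN-gamma mixture; protective hits raise ATP signal compared with cytokine alone wells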
[7] = inhibitors of HIV Env-driven cell fusion, dose response, cherry-pick (AID 652057); assay type: functional, cell-based
[8] = CEM21 lymphoblast cell cytotoxicity, dose response, cytotoxicity control for viral fusion inhibitor project, CellTiter-Glo luminescence, cherry-picked (AID 652042); assay type: functional, cell-based;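 note: potency for signal decrease meaning cytotoxicity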
[9] = inhibitors of clade B AD8 Env fusion, dose response, cell-based, cherry-pick (AID 652062); assay type: functional;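 note: luciferase signal from cell-cell fusion driven by HIV-1 clade B AD8 Env; potency is for inhibitors of fusion seen as a drop in luminescence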
[10] = test system: Streptococcus sp. 'group A'; experiment: growth inhibition of control SK(-) GAS strain, dose response, counter-screen for streptokinase expression inhibitor project, luminescence, kanamycin, BacTiterGlo, confirmation (AID 1900); assay type: functional, organism-based
Streptococcus = experiment: Group A Streptococcus viability loss, dose response, counter-screen for streptokinase expression inhibitor project, luminescence, BacTiterGlo (AID 1915); assay type: functional, organism-based;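 note: potency for reduction of bacterial viability or growth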
H9c2 = experiment: cells; assay type: functional, cell-based; conditions: Rattus norvegicus, H9c2, Myocardium;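 note: confirmatory concentration-response retest of ultra-high-throughput screening hits for modulation of myocardial damage; cell death induced by hydrogen peroxide oxidative stress; compound pretreatment for 60 min then peroxide exposure for 2 h; potency is for protecting the cells against peroxide damage rather than for killing them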
[11] = Shn3 3'UTR reporter inhibitors, dose response, cell-based, Clone20 osteoblasts, firefly luciferase, cherry-picked (AID 624132); assay type: functional;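 note: firefly luciferase luminescence from reporter carrying the Shn3 3'UTR in osteoblasts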
[12] = HepG2 cell cytotoxicity, dose response, cytotoxicity control for Shn3 inhibitor project, CellTiter-Glo, cherry-picked (AID 624134); assay type: functional, cell-based
[13] = control 3'UTR Renilla luciferase suppression, dose response, counter-screen for Shn3 inhibitor project, cell-based, Clone20-Shn3RL, cherry-picked (AID 624133); assay type: functional
[14] = T. cruzi growth inhibition in host cells, dose response, cell-based, plate reader, dry powder, set 2 (AID 652275); assay type: functional

For `C=CCSC1=N/C(=C\c2cc(OC)c3c(c2)OCO3)C(=O)S1`, the EC50 [1] was 20.7 µM (inactive) and the EC50 [2] was 64.5 µM (inactive).
With `O=C(Nc1ccc(F)c(Cl)c1)C1CCCN(c2cnccn2)C1` (configuration not stated) the EC50 [3] was 0.39 µM (active), the EC50 [4] was > 60 µM (not active) and the AC50 [5] was 3.25 µM (active).
With `Cc1ccc(C)c(Nc2nc3c(S(=O)(=O)c4ccccc4)nnn3c3ccccc23)c1` the EC50 [1] was > 99 µM (inactive) and the EC50 [2] was > 99 µM (inactive).
In the case of `COc1cccc(NC(=S)N2CCC(Cc3ccccc3)CC2)c1`, the AC50 (Cryptococcus neoformans) is reported as 36.8 µM (active).
In the case of `Clc1ccc(CSc2nnc(-c3cccnc3)o2)cc1`, the AC50 [5] is reported as 4.13 µM (active).
In the case of `CCCCN1C(=O)c2ccc(C(=O)Nc3cccnc3)cc2C1=O`, the AC50 [5] is reported as 0.544 µM (active).
For `CN1/C(=C/C(=O)c2ccc(Cl)cc2)Sc2cc3c(cc21)OCO3`, the EC50 [1] was > 99 µM (inactive) and the EC50 [2] was 62.3 µM (inactive).
With `Cc1ccccc1N(Cc1cc(O)nc2ccccc12)C(=O)CCl` the AC50 [6] was 50.5 µM (active), the EC50 (Protein RecA) was 6.26 µM (active) and the CC50 (Vero) was 17.5 µM (active).
For `CCCN(CCC)c1[nH]cnc2ncnc1-2`, the AC50 (HEK293) was 21.2 µM (active).
In the case of `O=C(OCCOc1cccc(Cl)c1)c1cc(S(=O)(=O)N2CCCCC2)ccc1N1CCOCC1`, the EC50 [3] is reported as 3.05 µM (active), the EC50 [4] is reported as > 30 µM (not active) and the AC50 (INS1) is reported as 4.81 µM (active). For the same molecule, the AC50 [7] was 48.3 µM (active), the AC50 [8] was 52.3 µM (active) and the AC50 [9] was 22.1 µM (active).
With `CCCN(CCC)S(=O)(=O)c1ccc(C(=O)Nc2nnc(-c3cc(OC)cc(OC)c3)o2)cc1` the EC50 [10] was 0.12 µM (active), the EC50 [3] was 0.965 µM (active) and the EC50 [4] was 3.92 µM (active). The EC50 (Streptococcus) was 0.43 µM (active), the AC50 (HEK293) was 2.51 µM (active) and the IC50 (H9c2) was > 79 µM (inactive). The AC50 [11] was 2.64 µM (active), the AC50 [12] was 1.33 µM (active) and the AC50 [13] was 3.45 µM (active).
In the case of `Nc1nc(N)c2cc(S(=O)(=O)c3ccc4ccccc4c3)ccc2n1`, the EC50 [1] is reported as > 99 µM (inactive), the EC50 [2] is reported as > 99 µM (inactive) and the AC50 [11] is reported as 3.37 µM (active). The AC50 [12] was 2.82 µM (active).
In the case of `COc1ccccc1CN(C)C[C@H]1Oc2c(NC(=O)c3ccncc3)cccc2C(=O)N([C@@H](C)CO)C[C@@H]1C`, the AC50 [14] is reported as 0.078 µM (active).
In the case of `CC(C)N1C[C@@H](CN(C)Cc2ccc(Cl)cc2)Oc2c(C(=O)Nc3ccncc3)cccc2C1=O`, the AC50 [14] is reported as 0.00079 µM (active).
